Experimental data reported in PubChem BioAssay (NCI).
Several values for one entry are separate records, joined by “and”; a condition that tells them apart may be missing. Equal entries are not always repeated.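 The compound was tested at five concentrations on cells cultured in 96-well plates, with a 48-hour exposure period. GI50: concentration for 50% inhibition of growth. Definition used: TGI = concentration required for complete inhibition of growth.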

Legend:
Assay in all cases: NCI-60 cell line screen, 48 h
SF-295 CNS = system: SF-295 CNS
BT-549 breast = system: BT-549 breast
KM12 colon = system: KM12 colon
HOP-62 NSCLC = system: HOP-62 NSCLC
OVCAR-8 ovarian = system: OVCAR-8 ovarian
HS 578T breast = system: HS 578T breast
TK-10 renal = system: TK-10 renal
A498 renal = system: A498 renal
MDA-MB-435 = system: MDA-MB-435
SNB-19 CNS = system: SNB-19 CNS
OVCAR-5 ovarian = system: OVCAR-5 ovarian
NCI/ADR-RES ovarian = system: NCI/ADR-RES ovarian
SK-MEL-5 melanoma = system: SK-MEL-5 melanoma
SF-268 CNS = system: SF-268 CNS
CAKI-1 renal = system: CAKI-1 renal
NCI-H460 lung = system: NCI-H460 lung
NCI-H226 lung = system: NCI-H226 lung
HCT-15 colon = system: HCT-15 colon
ACHN renal = system: ACHN renal
M14 melanoma = system: M14 melanoma
NCI-H23 lung = system: NCI-H23 lung
EKVX NSCLC = system: EKVX NSCLC
MCF7 breast = system: MCF7 breast
OVCAR-3 ovarian = system: OVCAR-3 ovarian
COLO 205 colon = system: COLO 205 colon
UACC-62 melanoma = system: UACC-62 melanoma
UACC-257 melanoma = system: UACC-257 melanoma
MALME-3M melanoma = system: MALME-3M melanoma
SK-MEL-28 melanoma = system: SK-MEL-28 melanoma
OVCAR-4 ovarian = system: OVCAR-4 ovarian
SN12C renal = system: SN12C renal
K-562 leukemia = system: K-562 leukemia
A549 NSCLC = system: A549 NSCLC
SNB-75 CNS = system: SNB-75 CNS
CCRF-CEM leukemia = system: CCRF-CEM leukemia
DU-145 prostate = system: DU-145 prostate
IGROV1 ovarian = system: IGROV1 ovarian
RXF 393 renal = system: RXF 393 renal
NCI-H522 lung = system: NCI-H522 lung
T-47D breast = system: T-47D breast
UO-31 renal = system: UO-31 renal
LOX IMVI melanoma = system: LOX IMVI melanoma
MDA-MB-231 breast = system: MDA-MB-231 breast
U251 CNS = system: U251 CNS
SK-OV-3 ovarian = system: SK-OV-3 ovarian
HCT-116 colon = system: HCT-116 colon
PC-3 prostate = system: PC-3 prostate
786-0 renal = system: 786-0 renal
SF-539 CNS = system: SF-539 CNS
SW-620 colon = system: SW-620 colon
HT29 colon = system: HT29 colon
HCC-2998 colon = system: HCC-2998 colon

Structure (SMILES): NCCCn1c2c(c3ccc([N+](=O)[O-])cc3c1=O)C(=O)c1cc(Br)ccc1-2
- GI50 (SF-295 CNS): 163 nM
- GI50 (BT-549 breast): 31.4 nM and 49.1 nM
- TGI (BT-549 breast): 893 nM
- GI50 (KM12 colon): 83.4 nM and 18.5 nM
- TGI (KM12 colon): 353 nM and 191 nM
- GI50 (HOP-62 NSCLC): 34 nM and 32.9 nM
- TGI (HOP-62 NSCLC): 171 nM and 388 nM
- GI50 (OVCAR-8 ovarian): 27.1 nM
- TGI (OVCAR-8 ovarian): 188 nM
- GI50 (HS 578T breast): 105 nM
- GI50 (TK-10 renal): 267 nM and 280 nM
- TGI (TK-10 renal): 942 nM
- GI50 (A498 renal): 2.31 nM
- TGI (A498 renal): 62.8 nM
- GI50 (MDA-MB-435): 267 nM and 162 nM
- TGI (MDA-MB-435): 1360 nM
- GI50 (SNB-19 CNS): 37.9 nM
- GI50 (OVCAR-5 ovarian): 197 nM and 140 nM
- TGI (OVCAR-5 ovarian): 409 nM and 688 nM
- GI50 (NCI/ADR-RES ovarian): 35.2 nM
- TGI (NCI/ADR-RES ovarian): 203 nM and 206 nM
- GI50 (SK-MEL-5 melanoma): 26.5 nM and 33.8 nM
- TGI (SK-MEL-5 melanoma): 150 nM and 251 nM
- GI50 (SF-268 CNS): 3.58 nM
- TGI (SF-268 CNS): 142 nM
- GI50 (CAKI-1 renal): 219 nM
- TGI (CAKI-1 renal): 623 nM
- GI50 (NCI-H460 lung): 0.746 nM
- TGI (NCI-H460 lung): 113 nM
- GI50 (NCI-H226 lung): 45.1 nM and 11 nM
- TGI (NCI-H226 lung): 326 nM and 68.4 nM
- GI50 (HCT-15 colon): 35 nM
- TGI (HCT-15 colon): 155 nM and 64.1 nM
- GI50 (ACHN renal): 18.7 nM
- TGI (ACHN renal): 47.7 nM
- GI50 (M14 melanoma): 185 nM
- TGI (M14 melanoma): 435 nM and 165 nM
- GI50 (NCI-H23 lung): 28.9 nM and 21.3 nM
- TGI (NCI-H23 lung): 118 nM and 151 nM
- GI50 (EKVX NSCLC): 75.7 nM and 50.1 nM
- TGI (EKVX NSCLC): 223 nM
- TGI (MCF7 breast): 69.6 nM
- GI50 (OVCAR-3 ovarian): 254 nM
- GI50 (COLO 205 colon): 94.6 nM and 790 nM
- TGI (COLO 205 colon): 2340 nM
- GI50 (UACC-62 melanoma): 19.5 nM
- TGI (UACC-62 melanoma): 48.8 nM and 25.6 nM
- GI50 (UACC-257 melanoma): 456 nM
- GI50 (MALME-3M melanoma): 103 nM
- GI50 (SK-MEL-28 melanoma): 71.5 nM
- GI50 (OVCAR-4 ovarian): 102 nM
- GI50 (SN12C renal): 15.4 nM
- TGI (SN12C renal): 56.6 nM
- GI50 (K-562 leukemia): 8.13 nM
- TGI (K-562 leukemia): 264 nM
- GI50 (A549 NSCLC): 89.7 nM
- TGI (A549 NSCLC): 245 nM
- GI50 (SNB-75 CNS): 2.81 nM
- TGI (SNB-75 CNS): 29.8 nM
- GI50 (CCRF-CEM leukemia): 3.3 nM
- TGI (CCRF-CEM leukemia): 15.9 nM
- GI50 (DU-145 prostate): 2.05 nM
- TGI (DU-145 prostate): 8.73 nM and 12.1 nM
- GI50 (IGROV1 ovarian): 75.4 nM
- TGI (IGROV1 ovarian): 225 nM and 32.5 nM
- GI50 (RXF 393 renal): 318 nM
- GI50 (NCI-H522 lung): 290 nM
- GI50 (T-47D breast): 346 nM and 169 nM
- TGI (T-47D breast): 1490 nM
- GI50 (UO-31 renal): 57.5 nM
- TGI (UO-31 renal): 184 nM
- GI50 (LOX IMVI melanoma): 6.83 nM
- TGI (LOX IMVI melanoma): 109 nM and 22.7 nM
- GI50 (MDA-MB-231 breast): 36.4 nM and 16.8 nM
- TGI (MDA-MB-231 breast): 218 nM and 103 nM
- GI50 (U251 CNS): 20.2 nM
- TGI (U251 CNS): 111 nM and 14 nM
- GI50 (SK-OV-3 ovarian): 348 nM
- TGI (SK-OV-3 ovarian): 2030 nM
- GI50 (HCT-116 colon): 185 nM and 48.4 nM
- TGI (HCT-116 colon): 348 nM and 207 nM
- GI50 (PC-3 prostate): 101 nM and 28.6 nM
- TGI (PC-3 prostate): 412 nM and 312 nM
- GI50 (786-0 renal): 43.5 nM and 64.3 nM
- TGI (786-0 renal): 173 nM and 387 nM
- GI50 (SF-539 CNS): 13.2 nM and 10.9 nM
- TGI (SF-539 CNS): 69.9 nM and 47.2 nM
- GI50 (SW-620 colon): 1.06 nM
- TGI (SW-620 colon): 132 nM
- GI50 (HT29 colon): 5.56 nM
- TGI (HT29 colon): 134 nM
- GI50 (HCC-2998 colon): 154 nM
